TGI data for nine compounds are collected here from PubChem BioAssay (NCI).

Assay in all cases: inhibition of tumour cell growth, NCI panel, 48 h
The subject of test [1] is A549 NSCLC.
For test [2], the system named is CAKI-1 renal.
The test system of test [3] is CCRF-CEM leukemia.
For test [4], the system named is COLO 205 colon.
Test [5] has as its system HT29 colon.
The subject of test [6] is IGROV1 ovarian.
Test [7] concerns NCI-H226 lung.
Test [8] deals with OVCAR-3 ovarian.
The subject of test [9] is OVCAR-4 ovarian.
Test [10] deals with PC-3 prostate.
Test [11] deals with RXF 393 renal.
Test [12] concerns SK-MEL-2 melanoma.
For test [13], the system named is SK-OV-3 ovarian.
The test system of test [14] is SN12C renal.
Test [15] deals with SNB-19 CNS.
Test [16] concerns T-47D breast.
Test [17] relates to HCC-2998 colon.
The test system of test [18] is KM12 colon.
In test [19] the test system is SR leukemia.

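Test compounds were applied to cells in 96-well plates for 48 hours at 5 doses. At the TGI there is no net growth.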

For `CC(=O)OCOC(=O)CN(CC(=O)OCOC(C)=O)Cc1cc2c(cc1OC(C)=O)Oc1cc(OC(C)=O)c(CN(CC(=O)OCOC(C)=O)CC(=O)OCOC(C)=O)cc1C21OC(=O)c2ccccc21`, the TGI in test [1] came to 4.82 µM; in [2] it was 6.77 µM; in [3], 0.374 µM; in [4] it was 1.86 µM; in test [5], 1.88 µM; in test [6], 1.36 µM. The TGI came out at 2.86 µM in test [7]; 2.98 µM in test [8]; 3.42 µM in test [9]; 4.82 µM in [10]; 1.43 µM in test [11]; 2.33 µM in test [12]. The TGI in [13] turned out to be 9.4 µM; in test [14] it was 2.83 µM; in test [15] it was 6.16 µM; in test [16], 4.21 µM.

For `O=C(c1cccc2ccccc12)C1(Br)S(=O)(=O)OCCOS1(=O)=O`, the TGI in test [1], in test [2], in test [4], in [17], in test [5] and in [18] was over 100 µM in each case. Also, the TGI in test [8], in [9], in test [12], in [14], in test [15] and in test [19] was over 100 µM each time.

Regarding `CCC1C(C#N)=C(N)OC2=C1C(=O)CC(C)(C)C2` (stereo not given), the TGI in [1], in test [2], in test [3], in [4], in test [17] and in test [5] was over 100 µM each time. Moreover, the TGI in test [6], in [18], in test [8], in test [9], in test [10] and in test [12] was over 100 µM each time. Further, the TGI in [13], in [14] and in test [15] was over 100 µM in each case.

Consider `CC12CCC(CC1=O)C2(C)CCC(N)=O` (stereo not given), for which the TGI in [1], in test [2], in test [3], in [4], in test [17] and in test [5] was over 100 µM throughout. Besides, the TGI in test [6], in test [18], in test [7], in test [8], in test [9] and in test [10] was over 100 µM each time. Further, the TGI in [11], in test [12], in [13], in test [14], in test [15] and in test [16] was over 100 µM each time.

Consider `COc1ccc2nc(-n3c(/C=C/c4ccccc4O)nc4ccccc4c3=O)sc2c1`, for which the TGI in [1], in test [2], in [3], in [4], in test [17] and in test [5] was over 100 µM throughout. Also, the TGI in test [6], in test [18], in test [7], in test [8], in [9] and in test [10] was over 100 µM in each case. Also, the TGI in test [11], in [12], in [13] and in test [15] was over 100 µM each time.

In the case of `CCOP(=O)(OCC)C1CC(O)C(=O)N1` (stereo not given), the TGI in [1], in [3], in test [4], in [5], in [6] and in test [18] was over 100 µM throughout. Besides, the TGI in test [7], in test [8], in [9], in test [10], in test [12] and in test [13] was over 100 µM each time. The TGI in test [14], in test [15] and in test [19] was over 100 µM in each case.

Regarding `COCCN(C(C)=O)C1CCC2(SCCS2)c2[nH]c3ccccc3c21` (stereo not given), the TGI in [1], in test [2], in test [3], in test [4], in [17] and in [5] was over 100 µM each time. Besides, the TGI in test [6], in [18], in test [7], in [8], in test [10] and in test [11] was over 100 µM throughout. Moreover, the TGI in test [14], in [15] and in test [19] was over 100 µM in each case.

With `[N-]=[N+]=Nc1c(C=O)c(=O)n2c3c(cccc13)CCC2`, the TGI in [1] is 40.9 µM; in [2] it was 16.2 µM; in [3], 6.44 µM; in test [4] it was 4.63 µM; in test [17], 33.6 µM; in test [5], over 70.2 µM. The TGI in [6] was found to be 25 µM; in [18], 34.6 µM; in [7], 43.7 µM; in test [8], 6.27 µM; in test [9], 8.49 µM; in [10] it was 27.2 µM. Besides, the TGI in test [11] was determined as 3.76 µM; in [13] it was 33.9 µM; in test [14], 37.5 µM; in [15], 42.1 µM; in [16] it was 15.5 µM.

As for `CCCNC(=O)c1cc(NC(=O)c2cc(NC(=O)/C=C/c3ccccc3)c(OC)c(OC)c2)c(OC)c(OC)c1`, the TGI in [1] is 23.9 µM; in [3], over 100 µM; in test [4], over 100 µM; in [5], 66.5 µM; in test [6] it was 31.7 µM; in [18], 41.8 µM. Also, the TGI amounted to 0.17 µM in test [7]; 17.9 µM in [8]; 8.05 µM in test [9]; 33.5 µM in [10]; 8.31 µM in test [11]; 31.2 µM in [12]. Also, the TGI in test [13] was 25.1 µM; in test [14], 0.879 µM; in test [15], 21.6 µM; in test [19] it was over 100 µM.
